This passage reports MIC results from DBAASP.

In brackets after ≈: the same amount, converted by molar mass.

Some test systems named below: Acinetobacter baumannii; Escherichia coli 170; Escherichia coli 4530; Proteus vulgaris; Acinetobacter sp. 301; Acinetobacter sp. 312; Acinetobacter sp. 322; Candida albicans 4615; Candida albicans 4748; Candida albicans 4762; Candida albicans SC5314; Candida albicans; Candida krusei ATCC 6258; Candida tropicalis 4345; Candida tropicalis 4912; Candida tropicalis; Escherichia coli 207; Escherichia coli 225; Escherichia coli 35; Escherichia coli 43.

Common to all, as to assay: ≥ marks a high value that may be exact or a test limit, other limits are often not marked, values filed in µg/mL are converted to µM
The test system of experiment [1] is Bacillus subtilis IFO 3143.
Experiment [2] has as its system Escherichia coli IFO 12734.
Experiment [3] relates to Pseudomonas aeruginosa IFO 12582.
For experiment [4], the system named is Staphylococcus aureus IFO 12732.
For experiment [5], the system named is Enterobacter cloacae 2524.
Experiment [6] concerns Enterobacter cloacae 6780.
The subject of experiment [7] is Escherichia coli ATCC 25922.
The subject of experiment [8] is Klebsiella pneumoniae 1625.
The test system of experiment [9] is Klebsiella pneumoniae 913.
Experiment [10] concerns Pseudomonas aeruginosa 4677.
Experiment [11] concerns Bacillus megaterium KCTC 1096.
Experiment [12] deals with Bacillus subtilis KCTC 1918.
Experiment [13] concerns Escherichia coli KCTC 1682.
The subject of experiment [14] is Pseudomonas aeruginosa KCTC 1637.
Experiment [15] concerns Staphylococcus aureus KCTC 1621.
Experiment [16] concerns Salmonella typhimurium KCTC 1926.
Experiment [17] concerns Streptococcus pyogenes KCTC 3096.
Experiment [18] relates to Candida glabrata ATCC 15126.
Experiment [19] has as its system Candida parapsilosis ATCC 22019.
Experiment [20] relates to Candida tropicalis ATCC 13803.
Experiment [21] concerns Erwinia amylovora PMV 6076.
Experiment [22] deals with Klebsiella pneumoniae 202.
Experiment [23] relates to Klebsiella pneumoniae 305.
Experiment [24] relates to Klebsiella pneumoniae 341.
Experiment [25] relates to Pseudomonas aeruginosa 302.
For experiment [26], the system named is Pseudomonas syringae pv. actinidiae Psa3700.1.1.
Experiment [27] has as its system Pseudomonas syringae pv. syringae EPS 94.
Experiment [28] relates to Xanthomonas arboricola pv. pruni CFBP 5563.
In experiment [29] the test system is Xanthomonas campestris pv. Vesicatoria 2133-2.
For experiment [30], the system named is Xanthomonas fragariae Xf349-9A.

In general, MIC refers to the least concentration at which growth counts as inhibited. Read a low MIC as inhibition by little substance. Regarding `CC(C)C[C@H](NC(=O)[C@H](Cc1ccc(O)cc1)NC(=O)[C@H](C)NC(=O)[C@@H](NC(=O)[C@H](CC(C)C)NC(=O)[C@H](C)NC(=O)[C@H](C)NC(=O)[C@H](CCCCN)NC(=O)CNC(=O)[C@@H](NC(=O)[C@H](C)NC(=O)[C@H](CCCCN)NC(=O)CNC(=O)[C@@H](NC(=O)[C@H](C)NC(=O)[C@H](C)NC(=O)[C@H](C)NC(=O)[C@H](CCCCN)NC(=O)[C@H](CCCCN)NC(=O)[C@H](Cc1ccccc1)NC(=O)[C@H](Cc1ccccc1)NC(=O)[C@H](CO)NC(=O)CNC(=O)[C@H](Cc1c[nH]c2ccccc12)NC(=O)CN)C(C)C)C(C)C)[C@@H](C)O)C(=O)O` [GWGSFFKKAAAVGKAVGKAALTAYL], the MIC in experiment [1] was 3.18 µM (≈ 8 µg/mL); in experiment [2], 6.37 µM (≈ 16 µg/mL); in experiment [3], 6.37 µM (≈ 16 µg/mL); in experiment [4], 6.37 µM (≈ 16 µg/mL).

In the case of `CC[C@H](C)[C@H](N)C(=O)N[C@@H](CCCCN)C(=O)N[C@@H](CO)C(=O)N[C@H](C(=O)N[C@@H](C)C(=O)N[C@@H](CO)C(=O)N[C@@H](CCCCN)C(=O)N[C@H](C(=O)N[C@@H](C)C(=O)N[C@@H](CC(N)=O)C(=O)N[C@H](C(=O)N[C@H](C(=O)N[C@@H](CCC(N)=O)C(=O)N[C@@H](CCCCN)C(=O)N[C@@H](CC(C)C)C(=O)N[C@@H](CCCCN)C(=O)N[C@@H](CCCN=C(N)N)C(=O)N[C@@H](CCCCN)C(=O)N[C@@H](C)C(=O)N[C@@H](CCCCN)C(=O)N[C@@H](CC(N)=O)C(=O)N[C@@H](C)C(=O)N[C@H](C(=O)N[C@@H](C)C(=O)O)C(C)C)C(C)C)[C@@H](C)O)C(C)C)[C@@H](C)CC` [IKSIASKVANTVQKLKRKAKNAVA], the MIC with Acinetobacter baumannii was 4.42 µM (≈ 11.3 µg/mL); in [5], 3.12 µM (≈ 8.01 µg/mL); in [6], at least 50 µM; against Escherichia coli 170 it was 1.56 µM (≈ 4 µg/mL); against Escherichia coli 4530, at least 50 µM; in experiment [7] it was 12.5 µM (≈ 32.1 µg/mL). Further, the MIC in experiment [8] was 6.25 µM (≈ 16 µg/mL); in experiment [9], at least 50 µM; in experiment [10], at least 50 µM.

Take `CC[C@H](C)[C@H](NC(=O)[C@H](CCCCN)NC(=O)[C@H](CCCCN)NC(=O)[C@H](Cc1ccccc1)NC(=O)[C@H](Cc1c[nH]c2ccccc12)NC(=O)[C@@H](N)CCCCN)C(=O)N1CCC[C@H]1C(=O)N[C@@H](CCCCN)C(=O)N[C@@H](Cc1ccccc1)C(=O)N[C@@H](CC(C)C)C(=O)N[C@@H](Cc1cnc[nH]1)C(=O)N[C@@H](CC(C)C)C(=O)N[C@@H](CC(C)C)C(=O)N[C@@H](CCCCN)C(=O)N[C@@H](CCCCN)C(=O)N[C@@H](Cc1ccccc1)C(N)=O` [KWFKKIPKFLHLLKKF]: the MIC in experiment [11] stood at 0.78 µM (≈ 1.64 µg/mL); in [12], 0.78 µM (≈ 1.64 µg/mL); in experiment [13], 3.12 µM (≈ 6.56 µg/mL); in the experiment with Proteus vulgaris, 3.12 µM (≈ 6.56 µg/mL); in [14], 3.12 µM (≈ 6.56 µg/mL); in experiment [15], 1.56 µM (≈ 3.28 µg/mL).

As for `CC[C@H](C)[C@H](NC(=O)[C@H](CCCCN)NC(=O)[C@H](CCCCN)NC(=O)[C@H](Cc1ccccc1)NC(=O)[C@H](CC(C)C)NC(=O)[C@H](CCCCN)NC(=O)[C@H](Cc1c[nH]c2ccccc12)NC(=O)[C@@H](N)CCCCN)C(=O)N1CCC[C@H]1C(=O)N[C@@H](CCCCN)C(=O)N[C@@H](Cc1ccccc1)C(=O)N[C@@H](CC(C)C)C(=O)N[C@@H](Cc1cnc[nH]1)C(=O)N[C@@H](CO)C(=O)N[C@@H](C)C(=O)N[C@@H](CCCCN)C(=O)N[C@@H](CCCCN)C(=O)N[C@@H](Cc1ccccc1)C(N)=O` [KWKLFKKIPKFLHSAKKF], the MIC amounted to 1.56 µM (≈ 3.55 µg/mL) in experiment [12]; 6.25 µM (≈ 14.2 µg/mL) in [13]; 3.12 µM (≈ 7.11 µg/mL) in [14]; 0.78 µM (≈ 1.77 µg/mL) in experiment [16]; 3.12 µM (≈ 7.11 µg/mL) in experiment [15]; 0.78 µM (≈ 1.77 µg/mL) in experiment [17].

`CC(C)C[C@H](NC(=O)[C@H](CCC(N)=O)NC(=O)[C@H](CCCCN)NC(=O)[C@H](CCCN=C(N)N)NC(=O)[C@H](Cc1ccccc1)NC(=O)[C@@H](N)Cc1c[nH]c2ccccc12)C(=O)N[C@@H](CCCCN)C(=O)N[C@@H](Cc1c[nH]c2ccccc12)C(=O)O` [WFRKQLKW]: the MIC was 2.37 µM (≈ 2.83 µg/mL) in the experiment with Acinetobacter sp. 301; 4.75 µM (≈ 5.66 µg/mL) in the experiment with Acinetobacter sp. 312; 3.36 µM (≈ 4 µg/mL) against Acinetobacter sp. 322; at least 42 µM in the experiment with Candida albicans 4615; 21 µM (≈ 25 µg/mL) against Candida albicans 4748; at least 83.9 µM against Candida albicans 4762. For the same compound, the MIC turned out to be 10.5 µM (≈ 12.5 µg/mL) with Candida albicans SC5314; 5.25 µM (≈ 6.25 µg/mL) against Candida albicans; 21 µM (≈ 25 µg/mL) in [18]; 21 µM (≈ 25 µg/mL) against Candida krusei ATCC 6258; 5.25 µM (≈ 6.25 µg/mL) in experiment [19]; 21 µM (≈ 25 µg/mL) against Candida tropicalis 4345. The MIC in the experiment on Candida tropicalis 4912 was 10.5 µM (≈ 12.5 µg/mL); in experiment [20], 21 µM (≈ 25 µg/mL); against Candida tropicalis it was at least 83.9 µM; in experiment [21] it was at least 50 µM; in the experiment with Escherichia coli 207, 1.68 µM (≈ 2 µg/mL); against Escherichia coli 225, 0.839 µM (≈ 1 µg/mL). Further, the MIC was determined as 6.71 µM (≈ 8 µg/mL) in the experiment on Escherichia coli 35; 3.36 µM (≈ 4 µg/mL) against Escherichia coli 43; 0.839 µM (≈ 1 µg/mL) in [7]; 6.71 µM (≈ 8 µg/mL) in experiment [22]; 3.36 µM (≈ 4 µg/mL) in [23]; 1.68 µM (≈ 2 µg/mL) in experiment [24]. Besides, the MIC is 6.71 µM (≈ 8 µg/mL) in experiment [25]; at least 50 µM in experiment [26]; at least 50 µM in [27]; at least 50 µM in [28]; at least 50 µM in experiment [29]; at least 50 µM in experiment [30].
